Reference: PMC2990756, “Quantitative High-Throughput Screening Identifies 8-Hydroxyquinolines as Cell-Active Histone Demethylase Inhibitors” (PLoS ONE, 2010)
Read-outs that look alike come from different tables or passages of the source. Blank lines part the entries; values can stand above or below the molecule they belong to.

Key:
JMJD2E (KDM4E) = molecular target: T1, JMJD2E (KDM4E) (Homo sapiens, UniProt B2RXH2); test: qHTS fluorescence FDH-coupled JMJD2E demethylase assay; assay type: biochemical
T1 construct: The catalytic domain of human JMJD2E (residues 1–337); His6 (N); made in house; host or cells: E. coli
T1 sequence (B2RXH2 1-337): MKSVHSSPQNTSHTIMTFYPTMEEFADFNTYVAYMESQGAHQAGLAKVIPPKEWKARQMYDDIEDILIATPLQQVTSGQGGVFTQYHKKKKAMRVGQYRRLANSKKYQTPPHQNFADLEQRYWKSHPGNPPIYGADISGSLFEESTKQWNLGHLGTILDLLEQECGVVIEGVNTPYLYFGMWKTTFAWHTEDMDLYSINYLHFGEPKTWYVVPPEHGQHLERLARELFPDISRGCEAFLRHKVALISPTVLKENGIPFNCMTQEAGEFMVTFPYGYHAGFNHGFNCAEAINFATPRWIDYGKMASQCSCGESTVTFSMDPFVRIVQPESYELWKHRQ
Text: The oxidation of formaldehyde is coupled to the reduction of NAD^+ to NADH, which is monitored by fluorescence spectroscopy. […] To this end, initial screening hits were filtered by a combination of cheminformatics (to exclude low-confidence inhibitors and autofluorescent false positives), counterscreening against the coupled-assay component formaldehyde dehydrogenase (FDH), and orthogonal direct detection of inhibition of demethylation by mass spectrometry ( Figure 1 ).
Reactions were initiated with 1 µL addition of peptide substrate solution containing final concentrations of 10 µM FAS, 50 µM 2OG, 0.25 U/mL FDH, 0.25 mM NAD^+, and 50 µM peptide substrate (ARK(me3)STGGK). A ViewLux imager (PerkinElmer, Waltham, MA) was used to measure NADH fluorescence (λex 340 nm, λem 450 nm) immediately after substrate addition and following 30 min incubation at room temperature. To record any systematic drifts in assay behavior (signal window and noise), assay plates containing no library compounds but only DMSO as a vehicle control were tested periodically (every ∼60 plates) throughout the screen.
Data were normalized to the basal response (0% activity) in the absence of enzyme and the maximal response (100% activity) in the absence of compound. Using the Hill equation, dose-response curves and IC50 values were automatically generated for each compound tested with software developed internally (www.ncgc.nih.gov/pub/openhts/curvefit/). […] The initial well fluorescence (first kinetic read) associated with each sample was stored in a database and used in the cheminformatics analysis to identify autofluorescent compounds interfering with the assay signal.

FIH = FIH (Homo sapiens, UniProt Q9NWT6); test: MALDI-TOF MS peptide hydroxylation assay, FIH
FIH, sequence (Q9NWT6 whole entry, the tested form may be a part): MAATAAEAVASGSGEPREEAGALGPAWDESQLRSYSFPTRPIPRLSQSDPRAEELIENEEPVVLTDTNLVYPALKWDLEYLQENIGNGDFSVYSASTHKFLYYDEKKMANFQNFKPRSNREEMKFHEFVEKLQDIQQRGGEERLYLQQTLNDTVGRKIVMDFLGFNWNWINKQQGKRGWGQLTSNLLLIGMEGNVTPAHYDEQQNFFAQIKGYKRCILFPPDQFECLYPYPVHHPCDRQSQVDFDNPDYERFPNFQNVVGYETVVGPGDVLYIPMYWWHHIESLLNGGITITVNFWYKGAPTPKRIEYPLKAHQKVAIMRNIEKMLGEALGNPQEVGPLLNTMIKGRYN
Experimental: (§1) JMJD2 assays were carried out as reported [13]. […] Initially, JMJD2, Fe(II), ascorbate and inhibitors were pre-incubated for 15 min prior to the addition of peptide and 2OG. The reaction was incubated for 30 min before 1∶1 quenching with methanol followed by addition of four volumes of 20 mM triammonium citrate. PHD2 and FIH assays were carried out as described [41], [42] with minor modifications. PHD2 assay consisted of PHD2 (1 µM), FAS (10 µM), SA (100 µM), 2OG (60 µM) and HIF-1α^556–574CODD peptide (50 µM), in 50 mM HEPES (pH 7.5) with varying concentrations of inhibitors (final DMSO concentration was 5%). Initially, PHD2, Fe(II), ascorbate and inhibitors were pre-incubated for 15 min prior to the addition of peptide and 2OG. The reaction was incubated for 30 min before 1∶1 quenching with 1% TFA followed by addition of three volumes of 20 mM triammonium citrate. FIH assay consisted of FIH (1 µM), FAS (10 µM), SA (100 µM), 2OG (100 µM) and HIF-1α^786–826CAD peptide (100 µM), in 50 mM HEPES (pH 7.5) with varying concentrations of inhibitors (final DMSO concentration was 5%). […] The diluted assay mixture (1 µL) from JMJD2 and PHD2 assays were mixed with 1 µL of α-cyano-4-hydroxycinnamic acid and 1 µL of FIH assay mixture was mixed with 1 µL of sinapinic acid matrix, and assessed by matrix-assisted laser desorption/ionization-time of flight (MALDI-TOF).

PHD2 (catalytic domain) = PHD2 (catalytic domain) (Homo sapiens, UniProt Q9GZT9); test: MALDI-TOF MS peptide hydroxylation assay, PHD2
PHD2 (catalytic domain), sequence (Q9GZT9 181-426 limits assumed): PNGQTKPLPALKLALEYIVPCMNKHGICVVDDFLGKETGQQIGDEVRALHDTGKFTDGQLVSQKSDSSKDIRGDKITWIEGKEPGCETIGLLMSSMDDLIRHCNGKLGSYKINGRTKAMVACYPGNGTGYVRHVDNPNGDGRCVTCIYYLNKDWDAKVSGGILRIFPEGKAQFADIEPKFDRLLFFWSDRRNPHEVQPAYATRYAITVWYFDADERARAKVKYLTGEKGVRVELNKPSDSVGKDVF
Experimental: as §1

JMJD2A [1] = molecular target: T2, JMJD2A (Homo sapiens, UniProt O75164); test: MALDI-TOF MS demethylation assay, JMJD2A
T2 sequence (O75164 1-359 limits assumed): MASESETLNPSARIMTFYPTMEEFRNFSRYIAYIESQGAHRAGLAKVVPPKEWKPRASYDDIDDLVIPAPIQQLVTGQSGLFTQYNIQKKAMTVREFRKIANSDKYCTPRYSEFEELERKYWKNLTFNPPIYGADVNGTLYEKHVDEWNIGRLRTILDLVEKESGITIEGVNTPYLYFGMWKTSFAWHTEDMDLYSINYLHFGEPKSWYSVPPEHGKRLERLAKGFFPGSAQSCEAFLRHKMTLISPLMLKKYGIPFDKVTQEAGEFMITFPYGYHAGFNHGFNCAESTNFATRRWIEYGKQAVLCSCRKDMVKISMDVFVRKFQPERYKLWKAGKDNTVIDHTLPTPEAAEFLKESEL
Experimental: as §1

JMJD2E [2] = molecular target: T3, JMJD2E (Homo sapiens, UniProt B2RXH2); test: MALDI-TOF MS demethylation assay, JMJD2E; details: for MALDI-TOF Data: Span: span of the fitted curve
T3 sequence (B2RXH2 1-337): T1 sequence (B2RXH2 1-337)
Experimental: Initially, JMJD2, Fe(II), ascorbate and inhibitors were pre-incubated for 15 min prior to the addition of peptide and 2OG. The reaction was incubated for 30 min before 1∶1 quenching with methanol followed by addition of four volumes of 20 mM triammonium citrate. […] The diluted assay mixture (1 µL) from JMJD2 and PHD2 assays were mixed with 1 µL of α-cyano-4-hydroxycinnamic acid and 1 µL of FIH assay mixture was mixed with 1 µL of sinapinic acid matrix, and assessed by matrix-assisted laser desorption/ionization-time of flight (MALDI-TOF).

JMJD2A [3] = molecular target: T4, JMJD2A (Homo sapiens, UniProt O75164); test: Cellular demethylase assay: H3K9me3 immunofluorescence in HeLa cells overexpressing Flag-JMJD2A; details: 24 hr
T4 sequence (O75164 1-1064): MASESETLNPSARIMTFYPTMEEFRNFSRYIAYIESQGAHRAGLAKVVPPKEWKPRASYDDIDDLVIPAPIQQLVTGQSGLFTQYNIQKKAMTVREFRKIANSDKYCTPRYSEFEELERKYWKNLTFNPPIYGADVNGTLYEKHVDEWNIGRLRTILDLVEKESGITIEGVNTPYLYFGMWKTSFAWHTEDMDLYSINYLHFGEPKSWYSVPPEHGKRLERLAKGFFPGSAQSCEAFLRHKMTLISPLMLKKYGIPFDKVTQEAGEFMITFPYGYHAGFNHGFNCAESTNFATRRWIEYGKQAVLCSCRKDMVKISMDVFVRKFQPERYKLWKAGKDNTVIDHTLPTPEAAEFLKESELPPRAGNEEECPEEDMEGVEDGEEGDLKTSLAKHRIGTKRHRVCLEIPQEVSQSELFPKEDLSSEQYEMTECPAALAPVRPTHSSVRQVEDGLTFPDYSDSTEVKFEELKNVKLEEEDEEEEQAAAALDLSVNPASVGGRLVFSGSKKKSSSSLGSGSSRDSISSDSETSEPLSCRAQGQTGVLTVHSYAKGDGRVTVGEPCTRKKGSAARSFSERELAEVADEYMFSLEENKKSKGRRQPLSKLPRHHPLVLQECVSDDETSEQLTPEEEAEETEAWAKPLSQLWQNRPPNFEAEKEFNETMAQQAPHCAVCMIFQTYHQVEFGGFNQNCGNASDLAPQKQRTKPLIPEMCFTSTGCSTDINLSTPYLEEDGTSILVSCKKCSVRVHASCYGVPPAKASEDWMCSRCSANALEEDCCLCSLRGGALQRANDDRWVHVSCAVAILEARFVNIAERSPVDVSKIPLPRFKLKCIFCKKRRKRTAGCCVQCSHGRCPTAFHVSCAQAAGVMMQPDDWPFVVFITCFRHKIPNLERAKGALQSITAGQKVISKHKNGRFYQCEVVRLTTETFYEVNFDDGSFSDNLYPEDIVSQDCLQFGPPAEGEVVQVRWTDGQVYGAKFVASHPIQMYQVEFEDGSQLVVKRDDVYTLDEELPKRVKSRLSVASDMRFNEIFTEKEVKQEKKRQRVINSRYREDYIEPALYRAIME
Text: Therefore, in order to automate this process a series of images were collected for each treatment on a standard epifluorescence microscope ( Figure 5A ) and then submitted to CellProfiler Software for analysis [29]. CellProfiler was configured to analyze the images for DAPI signal, a DNA stain, enabling the program to identify the location of individual cells and create a boundary that delineates the volume of the nuclear compartment. As not all cells in a given field are transfected, the Flag-JMJD2A-expressing cells were identified by quantifying the immunofluoresence signal resulting from the Flag antibody staining and using the mock transfected cells as a baseline for the signal intensity of non-transfected cells. Once the transfected cells were identified, the nuclear H3K9me3 immunofluorescence signal for each cell was quantified by CellProfiler. The levels of H3K9me3 staining intensity were analyzed in the DMSO vehicle treated or inhibitor treated samples. As a control and a means of determining maximal possible inhibition of demethylase activity, cells expressing the JMJD2A H188A catalytically deficient mutant were also quantified in each experiment. […] For each treatment a minimum of 400 transfected cells was analyzed and the final values of inhibition were derived from inhibition experiments carried out on three separate days (biological triplicates). […]

JMJD2E [4] = molecular target: T3, JMJD2E; test: JMJD2E FDH-coupled assay under low and high iron conditions (iron chelation profile); assay type: biochemical; parameters: The catalytic domain of human JMJD2E (residues 1–337); His6 (N); made in house; host or cells: E. coli; details: Table S1, unit not in table, from Figure 2
Experimental: The prioritized compounds were also evaluated in the screening assay using two different ferrous ion concentrations (termed high iron and low iron, respectively), in order to assess their propensity for iron chelation.
The ratio of IC50 values under high iron to low iron was calculated for each compound.

[5] = molecular target: T5, formaldehyde dehydrogenase (FDH) (Pseudomonas putida, UniProt P46154); test: FDH coupling enzyme counterscreen; assay type: biochemical; details: Table S1; FDH counterscreen
T5 construct: purchased Sigma-Aldrich
T5 sequence (P46154 whole entry): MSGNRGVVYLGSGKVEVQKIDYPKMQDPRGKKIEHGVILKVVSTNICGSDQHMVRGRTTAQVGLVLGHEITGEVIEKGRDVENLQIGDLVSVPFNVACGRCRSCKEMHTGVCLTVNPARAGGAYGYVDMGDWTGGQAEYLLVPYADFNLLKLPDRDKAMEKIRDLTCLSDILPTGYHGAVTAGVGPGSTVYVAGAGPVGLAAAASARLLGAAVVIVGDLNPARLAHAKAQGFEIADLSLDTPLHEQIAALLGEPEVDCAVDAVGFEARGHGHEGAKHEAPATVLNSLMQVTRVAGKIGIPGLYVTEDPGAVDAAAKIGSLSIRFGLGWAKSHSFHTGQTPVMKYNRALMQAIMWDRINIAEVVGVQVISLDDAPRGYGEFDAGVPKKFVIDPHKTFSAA
Text: Dimethylsulfoxide certified ACS grade (DMSO) was from Fisher, Inc. HEPES buffer was obtained from Gibco. […] Black solid-bottom 1,536-well assay plates were from Greiner Bio-One (Monroe, NC).

[6] = Cytotoxicity, resazurin/resorufin (CellTiter-Blue); assay type: cell-based; details: human, HeLa cells
Experimental: Cytotoxicity testing of the 5-carboxy-8HQ on HeLa cells was conducted with the resazurin/resorufin system for cellular metabolism.
Cytotoxicity testing was done with CellTiter-Blue (Promega) according to the manufacturer's directions.

[7] = Table S1, unit not in table, from Figure 2, read-out: qHTS Data: jmjd2e IC50
[8] = read-out: MALDI-TOF Data: IC50, Table S1, 2 µM JMJD2E, unit not in table, ~ values are poorly fitted
[9] = high iron, head says 20 µM FAS, read-out: qHTS Data: jmjd2e fas20um IC50
[10] = low iron 2.5 µM FAS, read-out: qHTS Data: jmjd2e fas2.5um IC50

IC50 (JMJD2E (KDM4E); Figure 3, substituted 8-hydroxyquinolines against JMJD2E, read-out: IC50 /μM (qHTS IC50, FDH-coupled assay)): 1.1 µM
IC50 (FIH): 19.6 µM
IC50 (PHD2 (catalytic domain)): 14.4 µM
IC50 (JMJD2A [1]): 8.2 µM
IC50 (JMJD2E [2]): 6 µM
SMILES: Oc1ccc(CNc2ccccc2F)c2cccnc12 [SID 852641]

JMJD2A demethylase activity remaining (JMJD2A [3]; 2.5mM treatment): approximately 20%
SMILES: COC(=O)CNC(=O)C(=O)OC [DMOG, dimethyloxalylglycine]

SMILES: O=c1c2ccccc2sn1-c1nccs1 [compound 24830882]
IC50 (JMJD2E (KDM4E); [7]): 7.94 µM
MALDI-TOF Data: Span (JMJD2E [2]; Table S1, 2 µM JMJD2E): 82.19
IC50 (JMJD2E [2]; [8]): 10.2 µM
IC50 (JMJD2E [4]; [9]): 3.98 µM
IC50 (JMJD2E [4]; [10]): 7.94 µM
qHTS Data: jmjd2e fdh CurveClass [5]: Inactive

SMILES: O=C(O)c1ccc(O)c2ncccc12 [SID 85736331, 5-carboxy-8-hydroxyquinoline]
IC50 [6]: 292 µM
IC50 (FIH): 20.5 µM

SMILES: O=c1cc(-c2ccccc2)oc2cc(O)c(O)c(O)c12 [compound 11114203]
IC50 (JMJD2E (KDM4E); [7]): 0.89 µM
MALDI-TOF Data: Span (JMJD2E [2]; Table S1, 2 µM JMJD2E): 89.05
IC50 (JMJD2E [2]; [8]): 5.8 µM
IC50 (JMJD2E [4]; [9]): 8.91 µM
IC50 (JMJD2E [4]; [10]): 2.24 µM
qHTS Data: jmjd2e fdh CurveClass [5]: Inactive

SMILES: NC(Cc1cc(O)c(O)cc1O)C(=O)O (centres unmarked) [compound 50106437]
IC50 (JMJD2E (KDM4E); [7]): 12.6 µM
MALDI-TOF Data: Comments (JMJD2E [2]; Table S1): solubility problems
IC50 (JMJD2E [4]; [9]): 2.24 µM
IC50 (JMJD2E [4]; [10]): 7.94 µM
qHTS Data: jmjd2e fdh CurveClass [5]: Inactive

JMJD2A demethylase activity remaining (JMJD2A [3]; 1mM treatment): approximately 35%
SMILES: COC(=O)c1ccnc(C(=O)OC)c1 [dimethyl-2,4-PDCA]
